System: Normal Human Dermal Fibroblast cells
Assay: CometAssay of DNA damage in dermal fibroblasts exposed to a solar simulator under a protective layer
Type: cell-based
Details: for Comet tail appearance / extent of DNA damage (in words): SYBR I Green visualisation after electrophoresis 25 minutes at 20 volts, FIGS. 2 and 3; for Comet tail appearance / extent of DNA damage (in words) / Integral of Student's Probability Density for Tail Length/Total Length: disodium salt
Text: Using a model for human skin (confluent human dermal fibroblasts, Lonza CC-2511), a fluorescent dye was used to evaluate induction of […]. Stilbene-420 was selected for having a broad range of absorption in the UVB and UVA ranges while retaining a relatively narrow emission spectrum centered around 420 nm. A 2% solution of stilbene in water was used for this study.
Stilbene-420 was compared to both unshielded cells and commercial SPF 45 sunblock in their ability to protect Normal Human Dermal Fibroblast cells raised on Lonza FGM-2 media from exposure to the full power of a solar simulator. A CometAssay was used to assess DNA damage to the cells. The resulting data was filtered and analyzed with an Integral of Student's Probability Density.
Using Fibroblast Grown Medium with 10% FBS, normal Human Dermal Fibroblasts (obtained from Lonza Clonetics) were grown to confluence in a 12-well plate. After 6 days, one of the wells was harvested by scraping and stored at 4° C. Using custom aluminum holders, a UV-transparent quartz window was placed above each well, and space between the window and holder sealed with 5% agarose. The windows were then covered with 0.5 mL of 0.5% Stilbene 420 florescent dye in water, commercial SPF 45 sunblock or left alone. Then, the plate was exposed to a Solar Simulator for 22.5 minutes at full intensity. Afterwards, the cells were harvested by scraping and all the cells were suspended in low-melting point for the CometAssay using a kit produced by Trevigen. Though the results of DNA damage are often easy to see, for example, cell death, quantifying the extent to which this damage has occurred can be difficult. The CometAssay is a test measures fairly low levels of DNA Damage. The basic concept of the test is that, given more incipient DNA damage that is dealt, the more fragments of DNA are created and the smaller they become. By embedding the cells in a low melting point agarose gel and lysing them, release of these DNA fragments occurs without inducing further damage. A simple gel electrophoresis process causes the fragments to begin to migrate out of the lysed cells. As smaller fragments move faster, a comet-like tail develops, which can be visualized by using a dye like SYBR1 Green. The relative size, intensity and length of this tail are directly related to the amount of DNA damage a cell has received.
After lysing the cells and running them on an electrophoresis apparatus for 25 minutes at 20 volts, the DNA fragment “tails” were visualized with SYBR I Green dye under a microscope using a 492 nm laser and stored (FIGS. 2a.-c.). Using a MatLAB script, the images were filtered by their intensity to isolate individual cells (FIG. 3). […] This is indicative of damaged DNA which forms a heterogeneous population of DNA strand lengths.
Each cell was measured by the width of the “core,” where the larger, less-damaged pieces of DNA remained, and the length of the “tail” produced from the migration of the smaller fragments. These values were compared in several ratios and a Student t-test was performed (Table 1). From those t-values an Integral of Student's Probability Density was calculated assuming an unequal variance between the different protections. This latter value determines the probability that the data comes from the same population as the control data. For the sunblock-protected cells, there is just an 11% chance when comparing the ratio of tail length to total length of the “comet” to the same ratio for the control. For the unprotected cells, the probability drops to just 4.7%. But, for the dye-protected cells, there was a 96.6% came from the same population, indicating the dye provided the best protection, keeping the cells closest to their original state.

[1] = Student t-test vs unexposed control cells, Solar Simulator 22.5 minutes at full intensity
[2] = probability that data come from the same population as the control, unequal variance assumed

O=S(=O)([O-])c1ccccc1C=Cc1ccc(-c2ccc(C=Cc3ccccc3S(=O)(=O)[O-])cc2)cc1.[Na+].[Na+] [Stilbene 420, 2,2″-([1,1′-biphenyl]-4.4′-dyldi-2,1-ethenediyl)bis-benzenesulfonic acid disodium salt]
Comet tail appearance / extent of DNA damage (in words): narrower, shorter tail
Comet tail appearance / extent of DNA damage (in words) (listed as stillbene): do not form tails
Tail Length/Core Width T-Value [1]: 0.2257
Tail Length/Total Length T-Value [1]: 0.0437
Difference T-value (Student t-test vs unexposed control cells, comet tail/core measures, Solar Simulator 22.5 minutes at full intensity): 0.1870
Integral of Student's Probability Density for Difference [2]: 85.83%
Integral of Student's Probability Density for Tail Length/Core Width [2]: 82.7%
Integral of Student's Probability Density for Tail Length/Total Length [2]: 96.63%
Integral of Student's Probability Density for Tail Length/Total Length (probability that data come from the same population as the control, unequal variance assumed, listed as dye): 96.6%
Greater chance of being from the same population of unexposed cells than the sunblock protected cells (statistical comparison of Stilbene-protected vs sunblock-protected cells): more than a forty percent greater chance
